Assay results reported in PubChem BioAssay (NCI).
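Five concentrations, 48 hours, 96-well plates. TGI is the concentration that stops growth completely.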

Legend:
Experiment in all cases: NCI tumour cell line growth inhibition, 48 h
HT29 colon = system: HT29 colon
KM12 colon = system: KM12 colon
NCI-H226 lung = system: NCI-H226 lung
NCI-H460 lung = system: NCI-H460 lung
NCI/ADR-RES ovarian = system: NCI/ADR-RES ovarian
RXF 393 renal = system: RXF 393 renal
SF-539 CNS = system: SF-539 CNS
SR leukemia = system: SR leukemia
UACC-62 melanoma = system: UACC-62 melanoma
UO-31 renal = system: UO-31 renal

Row | SMILES | TGI (HT29 colon) [µM] | TGI (KM12 colon) [µM] | TGI (NCI-H226 lung) [µM] | TGI (NCI-H460 lung) [µM] | TGI (NCI/ADR-RES ovarian) [µM] | TGI (RXF 393 renal) [µM] | TGI (SF-539 CNS) [µM] | TGI (SR leukemia) [µM] | TGI (UACC-62 melanoma) [µM] | TGI (UO-31 renal) [µM]
1 | O=S(=O)(c1ccc(NC2=NC(c3ccc(O)cc3)(c3ccccc3O)c3ccccc32)cc1)c1ccc(NC2=NC(c3ccc(O)cc3)(c3ccccc3O)c3ccccc32)cc1 (stereo not given) | > 52.7 | > 21.4 | 19.2 | 47.5 | > 100 | > 100 | > 100 | > 49.6 | > 100 | > 100
2 | C[n+]1cccc2c(=O)c3ccccc3oc21 | > 100 | > 100 | > 100 | > 100 | > 100 | > 100 | > 100 | > 100 | > 100 | > 100
3 | O=C1NC(=O)C(C(CC(=O)c2ccc([N+](=O)[O-])cc2)c2ccccc2)C(=O)N1 (stereo not given) | > 100 | 30.4 | > 100 | > 100 | > 100 | 55.8 | > 100 | > 100 | > 100 | > 100
4 | CCCCCCCC/C=C\CCCCCCC/C=C1\C[C@](/C=C/C(=O)OC)(CO)OC1=O | 25.8 | 14.2 | 6.66 | 20.2 | 14.6 | 12.3 | 3.82 | > 23.5 | 20.1 | 3.76
5 | O=c1[nH]nc(-c2ccccc2)n1/N=C\c1ccccc1 | > 100 | > 100 | > 100 | > 100 | > 100 | > 100 | > 100 | > 100 | > 100 | > 100
6 | CSCSSC | > 100 | > 100 | > 100 | > 100 | > 100 | > 100 | > 100 | > 100 | > 100 | > 100
7 | CN(C)c1nc(N)nc(CS)n1 | > 100 | > 100 | > 100 | > 100 | > 100 | > 100 | > 100 | > 100 | > 100 | > 100
8 | Cc1cccc(Nc2nn3c(=O)c4c5c(sc4nc3s2)CCCC5)c1 | > 100 | > 100 | > 100 | > 100 | > 100 | 62.8 | > 100 | > 100 | 5.92 | > 100
9 | CN(C)c1ccc(/C(F)=C(F)/C(F)=C(F)/C(F)=C(\F)c2ccc(Br)cc2)cc1 | 98 | > 100 | > 100 | > 100 | 22.4 | 38.7 | > 100 | > 100 | > 100 | > 100
10 | CC(=O)NCCC1CN(C(=O)/C=C/I)c2ccccc21 (stereo not given) | 12.9 | 2.67 | 29.2 | 16.9 | 33.3 | 10.8 | 21.1 | > 27.4 | 9.89 | 6.85
11 | Cc1ccc([S@](=O)c2occc2C=O)cc1 | 27.2 | 31.5 | 38 | 33.8 | > 61 | 26.3 | 25.8 | 5.08 | 29.3 | 23.2
12 | C=C[C@@H](C)[C@H](NS(=O)(=O)c1ccc(C)cc1)C(=O)OCC | 59.9 | > 100 | > 100 | > 100 | > 100 | > 100 | > 100 | > 100 | > 100 | 96.1
13 | CC1C(=O)N(c2ccccc2)NC12CCCc1ccccc12 (stereo not given) | > 100 | > 100 | > 100 | > 100 | > 100 | > 100 | > 100 | > 100 | > 100 | > 100
14 | OCCO/N=C1\C(c2c(O)[nH]c3ccccc23)=Nc2ccccc21 | > 100 | > 100 | > 100 | > 100 | > 100 | > 100 | > 100 | > 100 | > 100 | > 100
15 | N#CC1(C#N)NC(c2cccs2)C(C#N)(C#N)NC1c1cccs1 (stereo not given) | > 100 | > 100 | > 100 | > 100 | > 100 | > 100 | 47.6 | 77.3 | 57.9 | > 100
